Test results taken from patent US20240109865A1, “INDAZOLE COMPOUNDS AS KINASE INHIBITORS” (TYRA BIOSCIENCES, INC., priority 2020, published 2024).
Where two headings read alike, the source gives them in different places.

Assays:
[1] = biological target: FGFR3-BAIAP2L1 Ba/F3 cells (Homo sapiens, UniProt P22607); test: Ba/F3 cell viability assay (CellTiter-Glo 2.0), FGFR3-BAIAP2L1 Ba/F3; type: cell-based; settings: for Ba/F3 FGFR1/FGFR3 Selectivity: FGFR3 > FGFR1 selectivity ratio in Ba/F3 FGFR fusion cell based assays; for IC50: read-out: Ba/F3 Cells FGFR3 (IC50 nM), FGFR3-BAIAP2L1 Ba/F3 cells, 48 hours, Cell Titer Glo 2.0
How it was run: (§1)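 Viability read as ATP luminescence (CellTiter-Glo 2.0) after 48 h compound exposure, normalized to DMSO-treated cells and fitted with a 4-parameter curve for IC50. Cells: Ba/F3 dependent on FGFR1-BCR or FGFR3-BAIAP2L1 fusion kinase; top dose 30 μM, 10-fold steps, 9 doses in triplicate.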

[2] = biological target: FGFR1-BCR Ba/F3 cells (Homo sapiens, UniProt P11362); test: Ba/F3 cell viability assay (CellTiter-Glo 2.0), FGFR1-BCR Ba/F3; type: cell-based; settings: read-out: Ba/F3 Cells FGFR1 (IC50 nM), 48 hours, Cell Titer Glo 2.0
How it was run: as §1

[3] = system: RT112/84 cells (FGFR3-fusion); test: RT112/84 cancer cell line cell viability assay (CellTiter-Glo 2.0); type: cell-based; settings: Homo sapiens, 72 hours, Cell Titer Glo 2.0
Description: (§2) Experimental Purpose: To detect the change of intracellular ATP by Cell Titer-Glo® and to evaluate the inhibitory effect of the compounds on cancer cell lines by determining the in vitro IC50 value of the compounds.
(§3) Cell Titer-Glo® 2.0 Luminescent cell viability assay reagent was purchased from Promega (Madison, WI). RT112/84 and KG-1 cell lines were purchased from American Type Culture Collection (Manassas, VA). UM-UC-14 cell line was purchased from Sigma (St. Louis, MO). RT112/84, UM-UC-14, and KG-1 cells were cultured in RPMI1640 media supplemented with 10% fetal bovine serum. Cultures were maintained at 37° C. in a humidified atmosphere of 5% C02 and 95% air.
(§4) Cell Viability Assay Procedure: Cells were plated in 96-well clear bottom/white plates (Corning #3903) at 10,000 cells/well in 100 μl of media, incubated overnight. The next day, test compound DMSO stock solutions were made at 10 mM and 2 μM final concentration. Compounds were then added to cells in a 9-dose, 10-fold dilution series starting at 30 μM with an HP 300e Digital Dispenser (each dose was applied in triplicate). DMSO was backfilled to each well up to 301 nL total volume of test compound+DMSO, and a total of 301 nL DMSO was added to a control/no test compound well in triplicate. The cells in cell culture plates were incubated with the compounds at 37° C. and 5% C02 for 72 hours. Then 50 μl of Cell Titer Glo 2.0 reagent was added to each well of the cell culture plates. The contents were covered from light and mixed on an orbital shaker at room temperature for 10 min. Luminescence was recorded by a Synergy H1 Microplate Reader (Biotek, Winooski, VT). Cells were assessed as a percentage of DMSO only treated control cells. Curves were plotted and IC50 values were calculated using the GraphPad Prism 8 program based on a sigmoidal dose-response equation (4 parameter).

[4] = system: KG-1 cells (FGFR1-fusion); test: KG-1 cancer cell line cell viability assay (CellTiter-Glo 2.0); type: cell-based; settings: Homo sapiens, 72 hours, Cell Titer Glo 2.0
Description: as §2, §3, §4

[5] = biological target: FGFR1 (Homo sapiens (Human), UniProt P11362); test: Kinase assay, binding constants (Kd), kinase-tagged T7 phage, qPCR
How it was run: (§5)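 Kinase-tagged T7 phage (grown in BL21-derived E. coli) competed with test compound for immobilized biotinylated ligand on streptavidin beads. Kds came from an 11-point 3-fold dilution series at 0.9% final DMSO. Bound kinase was eluted with non-biotinylated ligand and quantified by qPCR, with Hill slope fixed at −1.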

[6] = biological target: FGFR2 (Homo sapiens (Human), UniProt P21802); test: as above
How it was run: as §5

[7] = biological target: FGFR3 (Homo sapiens (Human), UniProt P22607); test: as above
How it was run: as §5

[8] = biological target: FGFR3 (V555M) (Homo sapiens (Human), UniProt P22607, V555M); test: as above; settings: V555M mutant
How it was run: as §5

[9] = biological target: FGFR4 (Homo sapiens (Human), UniProt P22455); test: as above
How it was run: as §5

Chain of FGFR1 (P11362 22-822): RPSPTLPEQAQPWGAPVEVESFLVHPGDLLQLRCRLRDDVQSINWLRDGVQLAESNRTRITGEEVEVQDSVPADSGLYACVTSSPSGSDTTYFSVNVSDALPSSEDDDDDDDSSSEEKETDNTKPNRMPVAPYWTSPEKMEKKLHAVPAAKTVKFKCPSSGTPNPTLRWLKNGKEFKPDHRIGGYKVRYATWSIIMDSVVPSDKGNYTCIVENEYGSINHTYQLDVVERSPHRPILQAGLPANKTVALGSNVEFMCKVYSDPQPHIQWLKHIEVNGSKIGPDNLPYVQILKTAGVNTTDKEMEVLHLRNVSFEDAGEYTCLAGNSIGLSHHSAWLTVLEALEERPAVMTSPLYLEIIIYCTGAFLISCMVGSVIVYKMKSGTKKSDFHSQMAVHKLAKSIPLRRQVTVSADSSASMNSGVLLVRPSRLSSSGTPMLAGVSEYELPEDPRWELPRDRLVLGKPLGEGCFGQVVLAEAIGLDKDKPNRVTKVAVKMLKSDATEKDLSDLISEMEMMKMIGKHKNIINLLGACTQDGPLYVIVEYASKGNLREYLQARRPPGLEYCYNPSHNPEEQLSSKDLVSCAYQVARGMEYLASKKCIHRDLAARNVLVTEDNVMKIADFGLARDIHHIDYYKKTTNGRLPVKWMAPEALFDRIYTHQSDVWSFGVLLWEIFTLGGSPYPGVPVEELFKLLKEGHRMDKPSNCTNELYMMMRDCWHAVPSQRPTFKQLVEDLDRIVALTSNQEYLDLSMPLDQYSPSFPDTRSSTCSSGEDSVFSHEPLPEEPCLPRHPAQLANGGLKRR
Chain of FGFR1-BCR Ba/F3 cells (P11362 22-822 limits assumed, change not shown): as the sequence (P11362 22-822) above
Chain of FGFR4 (P22455 22-802): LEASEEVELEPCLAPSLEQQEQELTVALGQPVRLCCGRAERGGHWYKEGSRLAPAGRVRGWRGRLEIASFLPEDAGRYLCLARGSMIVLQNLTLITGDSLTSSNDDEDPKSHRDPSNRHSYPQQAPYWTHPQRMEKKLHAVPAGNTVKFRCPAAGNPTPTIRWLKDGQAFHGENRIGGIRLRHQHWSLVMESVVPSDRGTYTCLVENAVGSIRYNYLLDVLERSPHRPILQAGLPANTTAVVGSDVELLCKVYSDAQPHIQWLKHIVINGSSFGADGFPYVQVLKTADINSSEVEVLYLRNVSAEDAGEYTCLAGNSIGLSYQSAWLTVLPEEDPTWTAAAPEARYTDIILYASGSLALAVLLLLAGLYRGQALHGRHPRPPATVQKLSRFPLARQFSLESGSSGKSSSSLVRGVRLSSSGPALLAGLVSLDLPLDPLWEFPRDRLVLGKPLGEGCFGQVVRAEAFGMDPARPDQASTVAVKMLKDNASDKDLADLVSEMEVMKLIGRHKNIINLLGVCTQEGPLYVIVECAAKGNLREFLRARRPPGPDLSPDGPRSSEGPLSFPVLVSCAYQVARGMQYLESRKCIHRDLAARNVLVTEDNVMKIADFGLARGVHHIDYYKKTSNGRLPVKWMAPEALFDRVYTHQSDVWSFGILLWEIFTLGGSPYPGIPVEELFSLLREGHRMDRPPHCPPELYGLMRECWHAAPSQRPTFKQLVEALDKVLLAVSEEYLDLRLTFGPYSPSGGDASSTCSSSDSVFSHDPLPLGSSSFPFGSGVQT
Chain of FGFR3 (V555M) (P22607 23-806 V555M): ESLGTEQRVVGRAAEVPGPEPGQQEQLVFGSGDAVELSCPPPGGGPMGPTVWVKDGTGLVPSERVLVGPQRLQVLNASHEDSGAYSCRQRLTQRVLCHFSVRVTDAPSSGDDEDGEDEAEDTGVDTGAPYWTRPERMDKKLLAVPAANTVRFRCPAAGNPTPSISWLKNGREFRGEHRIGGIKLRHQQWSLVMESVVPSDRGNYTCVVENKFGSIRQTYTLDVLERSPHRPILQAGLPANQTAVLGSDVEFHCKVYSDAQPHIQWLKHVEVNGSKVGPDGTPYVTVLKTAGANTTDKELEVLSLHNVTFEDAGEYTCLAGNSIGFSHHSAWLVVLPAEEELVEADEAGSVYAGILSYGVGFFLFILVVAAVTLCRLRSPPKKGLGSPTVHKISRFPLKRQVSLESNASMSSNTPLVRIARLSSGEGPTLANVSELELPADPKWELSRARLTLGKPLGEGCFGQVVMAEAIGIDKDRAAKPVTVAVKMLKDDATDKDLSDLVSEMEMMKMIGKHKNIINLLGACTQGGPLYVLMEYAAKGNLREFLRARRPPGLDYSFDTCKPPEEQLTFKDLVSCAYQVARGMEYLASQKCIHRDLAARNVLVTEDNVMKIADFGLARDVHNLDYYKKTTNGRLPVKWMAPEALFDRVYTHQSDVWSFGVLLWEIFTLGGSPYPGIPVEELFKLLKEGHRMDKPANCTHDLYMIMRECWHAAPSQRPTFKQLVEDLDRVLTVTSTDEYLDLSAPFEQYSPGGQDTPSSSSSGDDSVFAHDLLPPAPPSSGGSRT
Chain of FGFR2 (P21802 22-821): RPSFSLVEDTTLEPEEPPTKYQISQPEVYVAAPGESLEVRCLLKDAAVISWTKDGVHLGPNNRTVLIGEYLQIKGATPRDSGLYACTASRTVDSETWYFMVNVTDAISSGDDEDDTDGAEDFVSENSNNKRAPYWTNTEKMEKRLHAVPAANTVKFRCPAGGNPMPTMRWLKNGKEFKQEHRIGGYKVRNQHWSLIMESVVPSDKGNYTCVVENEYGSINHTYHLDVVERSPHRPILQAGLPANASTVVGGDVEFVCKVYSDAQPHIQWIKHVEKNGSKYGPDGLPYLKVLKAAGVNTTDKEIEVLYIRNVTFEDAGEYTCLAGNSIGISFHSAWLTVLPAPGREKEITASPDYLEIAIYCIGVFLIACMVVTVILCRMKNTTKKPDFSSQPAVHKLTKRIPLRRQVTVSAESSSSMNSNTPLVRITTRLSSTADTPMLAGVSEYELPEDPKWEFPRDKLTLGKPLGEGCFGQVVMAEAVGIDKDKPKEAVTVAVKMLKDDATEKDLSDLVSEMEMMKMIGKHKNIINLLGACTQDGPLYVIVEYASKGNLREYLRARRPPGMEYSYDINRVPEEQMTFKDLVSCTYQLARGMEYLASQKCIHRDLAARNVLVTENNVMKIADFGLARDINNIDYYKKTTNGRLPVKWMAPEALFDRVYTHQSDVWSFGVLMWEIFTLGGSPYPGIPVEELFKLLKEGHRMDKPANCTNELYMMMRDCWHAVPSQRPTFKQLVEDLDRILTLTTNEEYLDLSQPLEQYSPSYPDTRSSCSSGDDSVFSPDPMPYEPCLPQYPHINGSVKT
Chain of FGFR3-BAIAP2L1 Ba/F3 cells (P22607 23-806 limits assumed, change not shown): as the sequence (P22607 23-806 V555M) above, with M533V counted along it
Chain of FGFR3 (P22607 23-806): as the sequence (P22607 23-806 V555M) above, with M533V counted along it

Row | SMILES | Ba/F3 FGFR1/FGFR3 Selectivity [1] | IC50 [1] [nM] | IC50 [2] [nM] | IC50 [3] [nM] | IC50 [4] [nM] | Kd [5] [nM] | Kd [6] [nM] | Kd [7] [nM] | Kd [8] [nM] | Kd [9] [nM] | IC50 ([1]; given as a number) [nM]
1 | C[C@@H](Oc1ccc2[nH]nc(-c3cnc(N4CCC5(CC4)CC(=O)NC5=O)nc3)c2c1)c1c(Cl)cncc1Cl [Example 50, 8-[5-[5-[(1R)-1-(3,5-dichloro-4-pyridyl)ethoxy]-1H-indazol-3-yl]pyrimidin-2-yl]-2,8-diazaspiro-[4,5]decane-1,3-dione] | 16 | 1 to 20 | 100 to 300 | 20 to 100 | 100 to 300 | 20 to 100 | 20 to 100 | 1 to 20 | 1 to 20 | 1 to 20 | 
2 | C[C@@H](Oc1ccc2[nH]nc(-c3cnn(C4CCN(C)CC4)c3)c2c1)c1c(Cl)cncc1Cl [Example 65, 5-[(1R)-1-(3,5-dichloro-4-pyridyl)ethoxy]-3-[1-(1-methyl-4-piperidyl)pyrazol-4-yl]-1H-indazole] |  | 1 to 20 | 20 to 100 | 1 to 20 | 20 to 100 | 1 to 20 | 1 to 20 | 1 to 20 | 1 to 20 | 1 to 20 | 
3 | C[C@@H](Oc1ccc2[nH]nc(-c3cnc(N4CCC5(CC4)CCS(=O)(=O)C5)c(F)c3)c2c1)c1c(Cl)cncc1Cl [Example 77, 8-[5-[5-[(1R)-1-(3,5-dichloro-4-pyridyl)ethoxy]-1H-indazol-3-yl]-3-fluoro-2-pyridyl]-2λ^6-thia-8-azaspiro[4.5]decane 2,2-dioxide] | 14 | 1 to 20 | 100 to 300 | 1 to 20 | 100 to 300 | 1 to 20 | 20 to 100 | 1 to 20 | 1 to 20 | 1 to 20 | 
4 | C[C@@H](Oc1ccc2[nH]nc(-c3cnn(C4CCN(C5COC5)CC4)c3)c2c1)c1c(Cl)cncc1Cl [Example 87, 5-[(1R)-1-(3,5-dichloro-4-pyridyl)ethoxy]-3-[1-[1-(oxetan-3-yl)-4-piperidyl]pyrazol-4-yl]-1H-indazole] | 17 | 1 to 20 | 20 to 100 | 1 to 20 | 20 to 100 | 1 to 20 | 1 to 20 | 1 to 20 | 1 to 20 | 20 to 100 | 
5 | C[C@@H](Oc1ccc2[nH]nc(-c3cnn([C@H]4CCNC4)c3)c2c1)c1c(Cl)cncc1Cl [Example 88, 5-[(1R)-1-(3,5-dichloro-4-pyridyl)ethoxy]-3-[1-[(3S)-pyrrolidin-3-yl]pyrazol-4-yl]-1H-indazole] | 20 | 1 to 20 | 100 to 300 | 20 to 100 | 100 to 300 | 1 to 20 | 1 to 20 | 1 to 20 | 1 to 20 | 20 to 100 | 
6 | Cc1ncc(Cl)c([C@@H](C)Oc2ccc3[nH]nc(-c4cnn(C5CCN(C(C)C)CC5)c4)c3c2)c1Cl [Example 93, 5-[(1R)-1-(3,5-dichloro-2-methyl-4-pyridyl)ethoxy]-3-[1-(1-isopropyl-4-piperidyl)pyrazol-4-yl]-1H-indazole] | 11 | 20 to 100 | 100 to 300 | 1 to 20 | 100 to 300 | 1 to 20 | 1 to 20 | 1 to 20 | 1 to 20 | 20 to 100 | 
7 | Cc1ncc(Cl)c([C@@H](C)Oc2ccc3[nH]nc(-c4cnn(C5CCN(C6COC6)CC5)c4)c3c2)c1Cl [Example 94, 5-[(1R)-1-(3,5-dichloro-2-methyl-4-pyridyl)ethoxy]-3-[1-[1-(oxetan-3-yl)-4-piperidyl]pyrazol-4-yl]-1H-indazole] | 11 |  | 100 to 300 | 1 to 20 | 100 to 300 | 20 to 100 | 1 to 20 | 1 to 20 | 1 to 20 | 20 to 100 | 15
8 | Cc1ncc(Cl)c([C@@H](C)Oc2ccc3[nH]nc(-c4cnn(C5CCN(C6CCC6)CC5)c4)c3c2)c1Cl [Example 95, 3-[1-(1-cyclobutyl-4-piperidyl)pyrazol-4-yl]-5-[(1R)-1-(3,5-dichloro-2-methyl-4-pyridyl)ethoxy]-1H-indazole] | 14 | 20 to 100 | > 300 | 20 to 100 | 100 to 300 | 1 to 20 | 1 to 20 | 1 to 20 | 1 to 20 | 20 to 100 | 
9 | C[C@@H](Oc1ccc2[nH]nc(-c3ccc(N4CC5(CCN5C)C4)nc3)c2c1)c1c(Cl)cncc1Cl [Example 96, 5-[(1R)-1-(3,5-dichloro-4-pyridyl)ethoxy]-3-[6-(1-methyl-1,6-diazaspiro[3.3]heptan-6-yl)-3-pyridyl]-1H-indazole] | 13 | 1 to 20 | 20 to 100 | 1 to 20 | 20 to 100 | 1 to 20 | 1 to 20 | 1 to 20 | 1 to 20 | 1 to 20 | 
10 | C[C@@H](Oc1ccc2[nH]nc(-c3ccc(N4CCC5(CC4)CN(C)CC(=O)N5)nc3)c2c1)c1c(Cl)cncc1Cl [Example 97, 9-[5-[5-[(1R)-1-(3,5-dichloro-4-pyridyl)ethoxy]-1H-indazol-3-yl]-2-pyridyl]-4-methyl-1,4,9-triazaspiro[5.5]undecan-2-one] | 15 | 1 to 20 | 20 to 100 | 1 to 20 | 20 to 100 | 1 to 20 | 1 to 20 | 1 to 20 | 1 to 20 | 1 to 20 | 
11 | C[C@@H](Oc1ccc2[nH]nc(-c3ccc(N4CCC5(CC4)CN(C)CC(=O)N5C)nc3)c2c1)c1c(Cl)cncc1Cl [Example 98, 9-[5-[5-[(1R)-1-(3,5-dichloro-4-pyridyl)ethoxy]-1H-indazol-3-yl]-2-pyridyl]-1,4-dimethyl-1,4,9-triazaspiro[5.5]undecan-2-one] | 24 | 1 to 20 | 20 to 100 | 1 to 20 | 20 to 100 | 1 to 20 | 1 to 20 | 1 to 20 | 1 to 20 | 1 to 20 | 
12 | C[C@@H](Oc1ccc2[nH]nc(-c3cnn(C4CCOCC4)c3)c2c1)c1c(Cl)cncc1Cl [Example 106, 5-[(1R)-1-(3,5-dichloro-4-pyridyl)ethoxy]-3-(1-tetrahydropyran-4-ylpyrazol-4-yl)-1H-indazole] | 11 | 1 to 20 | 100 to 300 | 1 to 20 | 100 to 300 | 1 to 20 | 1 to 20 | 1 to 20 | 1 to 20 | 1 to 20 | 
13 | Cc1ncc(Cl)c([C@@H](C)Oc2ccc3[nH]nc(-c4ccc(N5CC6(C5)CN(S(C)(=O)=O)C6)nc4)c3c2)c1Cl [Example 107, 5-[(1R)-1-(3,5-dichloro-2-methyl-4-pyridyl)ethoxy]-3-[6-(2-methylsulfonyl-2,6-diazaspiro[3.3]heptan-6-yl)-3-pyridyl]-1H-indazole] | 16 | 1 to 20 | 100 to 300 | 20 to 100 | 100 to 300 | 20 to 100 | 20 to 100 | 1 to 20 | 1 to 20 | 1 to 20 | 
